Source: patent publication US9873709B2 (priority 2013, dated 2018)

Tested on: JAK1-dependent STAT6 phosphorylation downstream of IL-13 stimulation in TF-1 human erythroleukemia cells
Experiment: cells
Conditions: TF-1, read-out: IL-13-pSTAT6 IC50

Row | Structure (SMILES) | IC50 [nM]
1 | O=C(c1ccc(Nc2nc3c(N4CCC(O)(c5ccc(Cl)cc5)CC4)cccn3n2)cc1)N1C[C@H]2CNC[C@H]2C1 [Example 1-235, [(3aR,6aS)-2,3,3a,4,6,6a-hexahydro-1H-pyrrolo[3,4-c]pyrrol-5-yl]-[4-[[8-[4-(4-chlorophenyl)-4-hydroxy-1-piperidyl]-[1,2,4]triazolo[1,5-a]pyridin-2-yl]amino]phenyl] methanone] | 310
2 | CCOC(=O)N1CC=C(c2cccn3nc(Nc4ccc(C(=O)NCCN5CC(C)OC(C)C5)cc4)nc23)CC1 (stereo not shown) [Example 2-167, ethyl 4-[2-[4-[2-(2,6-dimethylmorpholin-4-yl)ethylcarbamoyl]anilino]-[1,2,4]triazolo[1,5-a]pyridin-8-yl]-3,6-dihydro-2H-pyridine-1-carboxylate] | 15.8
3 | CCOC(=O)N1CC=C(c2cccn3nc(Nc4ccc(C(=O)OC5CCN(C)CC5)cc4)nc23)CC1 [Example 2-94, ethyl 4-[2-[4-[(1-methyl-4-piperidyl)oxycarbonyl]anilino]-[1,2,4]triazolo[1,5-a]pyridin-8-yl]-3,6-dihydro-2H-pyridine-1-carboxylate] | 23.6
4 | CC(C)N1CCC(N(C)C(=O)c2ccc(Nc3nc4c(C5=CCN(C(=O)CCC(F)(F)F)CC5)cccn4n3)cc2)CC1 [Example 2-330, N-(1-isopropyl-4-piperidyl)-N-methyl-4-[[8-[1-(4,4,4-trifluorobutanoyl)-3,6-dihydro-2H-pyridin-4-yl]-[1,2,4]triazolo[1,5-a]pyridin-2-yl]amino]benzamide] | 13.4
5 | CC(CN(C)C)NC(=O)c1ccc(Nc2nc3c(C4=CCN(C(=O)CCC(F)(F)F)CC4)cccn3n2)cc1 (stereo not shown) [Example 2-399, N-[2-(dimethylamino)-1-methyl-ethyl]-4-[[8-[1-(4,4,4-trifluorobutanoyl)-3,6-dihydro-2H-pyridin-4-yl]-[1,2,4]triazolo[1,5-a]pyridin-2-yl]amino]benzamide] | 12.1
6 | CN1CCC(N(C)C(=O)c2ccc(Nc3nc4c(C5=CCN(C(=O)N6CCOCC6)CC5)cccn4n3)cc2)CC1 [Example 2-413, N-methyl-N-(1-methyl-4-piperidyl)-4-[[8-[1-(morpholine-4-carbonyl)-3,6-dihydro-2H-pyridin-4-yl]-[1,2,4]triazolo[1,5-a]pyridin-2-yl]amino]benzamide] | 1260
7 | CCN(CC)C1CCN(C(=O)c2ccc(Nc3nc4c(C5=CCN(C(=O)CCC(F)(F)F)CC5)cccn4n3)cc2)C1 (stereo not shown) [Example 2-211, 1-[4-[2-[4-[3-(diethylamino)pyrrolidine-1-carbonyl]anilino]-[1,2,4]triazolo[1,5-a]pyridin-8-yl]-3,6-dihydro-2H-pyridin-1-yl]-4,4,4-trifluoro-butan-1-one] | 7.1
8 | O=C(c1ccc(Nc2nc3c(N4CCC(O)(c5ccc(Cl)cc5)CC4)cccn3n2)cc1)N1CCC2(CCCNC2)C1 (stereo not shown) [Example 1-212, [4-[[8-[4-(4-chlorophenyl)-4-hydroxy-1-piperidyl]-[1,2,4]triazolo[1,5-a]pyridin-2-yl]amino]phenyl]-(2,9-diazaspiro[4.5]decan-2-yl)methanone] | 196
9 | O=C(CCC(F)(F)F)N1CC=C(c2cccn3nc(Nc4ccc(C(=O)N5CCCC6(CNCCO6)C5)cc4)nc23)CC1 (stereo not shown) [Example 2-190, 4,4,4-trifluoro-1-[4-[2-[4-(1-oxa-4,8-diazaspiro[5.5]undecane-8-carbonyl)anilino]-[1,2,4]triazolo[1,5-a]pyridin-8-yl]-3,6-dihydro-2H-pyridin-1-yl]butan-1-one] | 40.9
10 | O=C(CCC(F)(F)F)N1CC=C(c2cccn3nc(Nc4ccc(C(=O)N5CCC(N6CCOCC6)C5)cc4)nc23)CC1 (stereo not shown) [Example 2-45, 4,4,4-trifluoro-1-[4-[2-[4-(3-morpholinopyrrolidine-1-carbonyl)anilino]-[1,2,4]triazolo[1,5-a]pyridin-8-yl]-3,6-dihydro-2H-pyridin-1-yl]butan-1-one] | 9
11 | O=C(NCCc1ccccn1)c1ccc(Nc2nc3c(C4=CCN(C(=O)CCC(F)(F)F)CC4)cccn3n2)cc1 [Example 2-478, N-[2-(2-pyridyl)ethyl]-4-[[8-[1-(4,4,4-trifluorobutanoyl)-3,6-dihydro-2H-pyridin-4-yl]-[1,2,4]triazolo[1,5-a]pyridin-2-yl]amino]benzamide] | 4.8
12 | CN1CCN(CCNC(=O)c2ccc(Nc3nc4c(C5=CCN(C(=O)CCC(F)(F)F)CC5)cccn4n3)cc2)CC1 [Example 2-270, N-[2-(4-methylpiperazin-1-yl)ethyl]-4-[[8-[1-(4,4,4-trifluorobutanoyl)-3,6-dihydro-2H-pyridin-4-yl]-[1,2,4]triazolo[1,5-a]pyridin-2-yl]amino]benzamide] | 16.4
13 | CCOC(=O)N1CC=C(c2cccn3nc(Nc4ccc(C(=O)NCCc5cccnc5)cc4)nc23)CC1 [Example 2-422, ethyl 4-[2-[4-[2-(3-pyridyl)ethylcarbamoyl]anilino]-[1,2,4]triazolo[1,5-a]pyridin-8-yl]-3,6-dihydro-2H-pyridine-1-carboxylate] | 14
14 | CN(Cc1ccncc1)C(=O)c1ccc(Nc2nc3c(N4CCC(O)(c5ccc(Cl)cc5)CC4)cccn3n2)cc1 [Example 1-111, 4-[[8-[4-(4-chlorophenyl)-4-hydroxy-1-piperidyl]-[1,2,4]triazolo[1,5-a]pyridin-2-yl]amino]-N-methyl-N-(4-pyridylmethyl)benzamide] | 15.6
15 | O=C(c1ccc(Nc2nc3c(N4CCC(O)(c5ccc(Cl)cc5)CC4)cccn3n2)cc1)N1CCC2(CCNC2)C1 (stereo not shown) [Example 1-207, [4-[[8-[4-(4-chlorophenyl)-4-hydroxy-1-piperidyl]-[1,2,4]triazolo[1,5-a]pyridin-2-yl]amino]phenyl]-(2,7-diazaspiro[4.4]nonan-2-yl)methanone] | 192
16 | O=C(CCC(F)(F)F)N1CC=C(c2cccn3nc(Nc4ccc(C(=O)N5CCCC5c5ccncc5)cc4)nc23)CC1 (stereo not shown) [Example 2-273, 4,4,4-trifluoro-1-[4-[2-[4-[2-(4-pyridyl)pyrrolidine-1-carbonyl]anilino]-[1,2,4]triazolo[1,5-a]pyridin-8-yl]-3,6-dihydro-2H-pyridin-1-yl]butan-1-one] | 5.5
17 | CN(Cc1ccccn1)C(=O)c1ccc(Nc2nc3c(C4=CCN(C(=O)CCC(F)(F)F)CC4)cccn3n2)cc1 [Example 2-199, N-methyl-N-(2-pyridylmethyl)-4-[[8-[1-(4,4,4-trifluorobulanoyl)-3,6-dihydro-2H-pyridin-4-yl]-[1,2,4]triazolo[1,5-a]pyridin-2-yl]amino]benzamide] | 4.2
18 | O=C(c1ccc(Nc2nc3c(N4CCC(O)(c5ccc(Cl)cc5)CC4)cccn3n2)cc1)N1CCN2CCCC2C1 (stereo not shown) [Example 1-168, 3,4,6,7,8,8a-hexahydro-1H-pyrrolo[1,2-a]pyrazin-2-yl-[4-[[8-[4-(4-chlorophenyl)-4-hydroxy-1-piperidyl]-[1,2,4]triazolo[1,5-a]pyridin-2-yl]amino]phenyl] methanone] | 22.6
19 | CCOC(=O)N1CC=C(c2cccn3nc(Nc4ccc(C(=O)N5CCN(c6cccnc6)CC5)cc4)nc23)CC1 [Example 2-19, ethyl 4-[2-[4-[4-(3-pyridyl)piperazine-1-carbonyl]anilino]-[1,2,4]triazolo[1,5-a]pyridin-8-yl]-3,6-dihydro-2H-pyridine-1-carboxylate] | 55.7
